Activity calls are given as the source filed them. The calls are words filed in the database; no cut-off is given here.
Legend:
PC-3 [1] = test: Induction of apoptosis in human PC3 cells assessed as chromatin condensation at 2.5 uM after 24 hrs by Hoechst 33258-based inverted fluorescence microscopy; assay type: functional, cell-based
PC-3 [2] = test: Induction of apoptosis in human PC3 cells assessed as reduction in full length PARP protein levels at 2.5 uM after 24 hrs by Western blot analysis; assay type: functional, cell-based
PC-3 [3] = test: Induction of apoptosis in human PC3 cells assessed as formation of apoptotic bodies at 2.5 uM after 24 hrs by 33258-based inverted fluorescence microscopy; assay type: functional, cell-based
PC-3 [4] = test: Induction of apoptosis in human PC3 cells assessed as suppression of bcl2 at 2.5 uM after 24 hrs by Western blot analysis; assay type: functional, cell-based
PC-3 [5] = test: Induction of apoptosis in human PC3 cells assessed as shrunken nucleus at 2.5 uM after 24 hrs by inverted microscopic analysis; assay type: functional, cell-based
PC-3 [6] = test: Induction of apoptosis in human PC3 cells assessed as increase in cleaved PARP levels at 2.5 uM after 24 hrs by Western blot analysis; assay type: functional, cell-based
PC-3 [7] = test: Induction of apoptosis in human PC3 cells assessed as cell shrinkage at 2.5 uM after 24 hrs by Hoechst 33258 staining based inverted microscopic analysis; assay type: functional
PC-3 [8] = test: Induction of apoptosis in human PC3 cells after 24 hrs by Annexin V-FITC/propidium iodide double staining based flow cytometry; assay type: functional, cell-based
PC-3 [9] = test: Induction of apoptosis in human PC3 cells assessed as increase in cleaved caspase 3 levels at 2.5 uM after 24 hrs by Western blot analysis; assay type: functional, cell-based
PC-3 [10] = test: Induction of apoptosis in human PC3 cells assessed as decrease in cell membrane smoothness at 2.5 uM after 24 hrs by inverted microscopic analysis; assay type: functional, cell-based
PC-3 [11] = test: Induction of apoptosis in human PC3 cells assessed as increase in survivin levels at 2.5 uM after 24 hrs by Western blot analysis; assay type: functional, cell-based
PC-3 [12] = test: Induction of apoptosis in human PC3 cells assessed as reduction in inactive pro-caspase-9 levels at 2.5 uM after 24 hrs by Western blot analysis; assay type: functional, cell-based
PC-3 [13] = test: Induction of apoptosis in human PC3 cells assessed as activation of BAX at 2.5 uM after 24 hrs by Western blot analysis; assay type: functional, cell-based
PC-3 [14] = test: Induction of apoptosis in human PC3 cells assessed as increase in cleaved caspase 9 levels at 2.5 uM after 24 hrs by Western blot analysis; assay type: functional, cell-based
[15] = Cytotoxicity against human WM9 cells assessed as reduction in cell viability after 48 hrs by MTT assay; assay type: functional, cell-based
HEL = test: Cytotoxicity against human HEL cells assessed as reduction in cell viability after 48 hrs by MTT assay; assay type: functional, cell-based
MDA-MB-231 = test: Cytotoxicity against human MDA-MB-231 cells assessed as reduction in cell viability after 48 hrs by MTT assay; assay type: functional, cell-based
PC-3 [16] = test: Cytotoxicity against human PC3 cells assessed as reduction in cell viability after 48 hrs by MTT assay; assay type: functional, cell-based
K562 = test: Cytotoxicity against human K562 cells assessed as reduction in cell viability after 48 hrs by MTT assay; assay type: functional, cell-based
PC-3 [17] = test: Induction of apoptosis in human PC3 cells assessed as late apoptotic cells at 1 uM after 24 hrs by Annexin V-FITC/propidium iodide double staining based flow cytometry (reference value: 0.4%); assay type: functional
PC-3 [18] = test: Induction of apoptosis in human PC3 cells assessed as viable cells at 1 uM after 24 hrs by Annexin V-FITC/propidium iodide double staining based flow cytometry (reference value: 97.9%); assay type: functional; conditions: PC-3, 24 h, read-out: Activity
PC-3 [19] = test: Induction of apoptosis in human PC3 cells assessed as viable cells at 3 uM after 24 hrs by Annexin V-FITC/propidium iodide double staining based flow cytometry (reference value: 97.9%); assay type: functional; conditions: PC-3, 24 h, read-out: Activity
PC-3 [20] = test: Induction of apoptosis in human PC3 cells assessed as early apoptotic cells at 0.5 uM after 24 hrs by Annexin V-FITC/propidium iodide double staining based flow cytometry (reference value: 0.8%); assay type: functional
PC-3 [21] = test: Induction of apoptosis in human PC3 cells assessed as necrotic cells at 0.5 uM after 24 hrs by Annexin V-FITC/propidium iodide double staining based flow cytometry (reference value: 0.9%); assay type: functional
PC-3 [22] = test: Induction of apoptosis in human PC3 cells assessed as viable cells at 2 uM after 24 hrs by Annexin V-FITC/propidium iodide double staining based flow cytometry (reference value: 97.9%); assay type: functional; conditions: PC-3, 24 h, read-out: Activity
PC-3 [23] = test: Induction of apoptosis in human PC3 cells assessed as early apoptotic cells at 3 uM after 24 hrs by Annexin V-FITC/propidium iodide double staining based flow cytometry (reference value: 0.8%); assay type: functional
PC-3 [24] = test: Induction of apoptosis in human PC3 cells assessed as late apoptotic cells at 2 uM after 24 hrs by Annexin V-FITC/propidium iodide double staining based flow cytometry (reference value: 0.4%); assay type: functional
PC-3 [25] = test: Potency index, ratio of 5-fluorouracil IC50 to compound IC50 for human PC3 cells; assay type: functional
PC-3 [26] = test: Induction of apoptosis in human PC3 cells assessed as late apoptotic cells at 3 uM after 24 hrs by Annexin V-FITC/propidium iodide double staining based flow cytometry (reference value: 0.4%); assay type: functional
PC-3 [27] = test: Induction of apoptosis in human PC3 cells assessed as early apoptotic cells at 2 uM after 24 hrs by Annexin V-FITC/propidium iodide double staining based flow cytometry (reference value: 0.8%); assay type: functional
PC-3 [28] = test: Induction of apoptosis in human PC3 cells assessed as late apoptotic cells at 0.5 uM after 24 hrs by Annexin V-FITC/propidium iodide double staining based flow cytometry (reference value: 0.4%); assay type: functional
PC-3 [29] = test: Induction of apoptosis in human PC3 cells assessed as necrotic cells at 3 uM after 24 hrs by Annexin V-FITC/propidium iodide double staining based flow cytometry (reference value: 0.9%); assay type: functional
PC-3 [30] = test: Induction of apoptosis in human PC3 cells assessed as necrotic cells at 1 uM after 24 hrs by Annexin V-FITC/propidium iodide double staining based flow cytometry (reference value: 0.9%); assay type: functional
PC-3 [31] = test: Induction of apoptosis in human PC3 cells assessed as viable cells at 0.5 uM after 24 hrs by Annexin V-FITC/propidium iodide double staining based flow cytometry (reference value: 97.9%); assay type: functional; conditions: PC-3, 24 h, read-out: Activity
PC-3 [32] = test: Potency index, ratio of cisplatin IC50 to compound IC50 for human PC3 cells; assay type: functional
PC-3 [33] = test: Induction of apoptosis in human PC3 cells assessed as early apoptotic cells at 1 uM after 24 hrs by Annexin V-FITC/propidium iodide double staining based flow cytometry (reference value: 0.8%); assay type: functional
PC-3 [34] = test: Induction of apoptosis in human PC3 cells assessed as necrotic cells at 2 uM after 24 hrs by Annexin V-FITC/propidium iodide double staining based flow cytometry (reference value: 0.9%); assay type: functional

| SMILES | IC50 ([15]; Homo sapiens, WM9, 48 h) [µM] | IC50 (HEL; Homo sapiens, HEL, 48 h) [µM] | IC50 (MDA-MB-231; Homo sapiens, MDA-MB-231, 48 h) [µM] | IC50 (PC-3 [16]; Homo sapiens, PC-3, 48 h) [µM] | IC50 (K562; Homo sapiens, K562, 48 h) [µM] | further results |
| --- | --- | --- | --- | --- | --- | --- |
| COc1cc(NC(=S)Nc2ccc(F)cc2)c2cc1Oc1ccc(cc1)C[C@H]1c3cc(c(OC)cc3CCN1C)Oc1c(OC)c(OC)cc3c1[C@H](C2)N(C)CC3 [listing 1 of 2 here] |  |  |  |  |  | Activity (PC-3 [1]): Active; Activity (PC-3 [2]): Active; Activity (PC-3 [3]): Active; Activity (PC-3 [4]): Active; Activity (PC-3 [5]): Active; Activity (PC-3 [6]): Active; Activity (PC-3 [7]): Active; Activity (PC-3 [8]): Dose-dependent effect; Activity (PC-3 [9]): Active; Activity (PC-3 [10]): Active; Activity (PC-3 [11]): Active; Activity (PC-3 [12]): Active; Activity (PC-3 [13]): Active; Activity (PC-3 [14]): Active |
| COc1ccc2cc1Oc1ccc(cc1)C[C@H]1c3cc(c(OC)cc3CCN1C)Oc1c(OC)c(OC)cc3c1[C@H](C2)N(C)CC3 [FANCHININ] | 11 | 16.8 | 22 | 7.87 | 13.8 |  |
| O=c1[nH]cc(F)c(=O)[nH]1 [FLUOROURACIL] | 15.8 | 16 | 17.7 | 19.9 | 9.49 |  |
| COc1cc(NC(=O)Nc2cccc(C)c2)c2cc1Oc1ccc(cc1)C[C@H]1c3cc(c(OC)cc3CCN1C)Oc1c(OC)c(OC)cc3c1[C@H](C2)N(C)CC3 | 5.07 | 4.86 | 10.4 | 3.15 | 2.15 |  |
| COc1cc(NC(=S)Nc2ccc(Cl)cc2)c2cc1Oc1ccc(cc1)C[C@H]1c3cc(c(OC)cc3CCN1C)Oc1c(OC)c(OC)cc3c1[C@H](C2)N(C)CC3 | 6.93 | 7.18 | 4.35 | 6.08 | 2.43 |  |
| COc1cc(NC(=O)Nc2ccc(F)cc2)c2cc1Oc1ccc(cc1)C[C@H]1c3cc(c(OC)cc3CCN1C)Oc1c(OC)c(OC)cc3c1[C@H](C2)N(C)CC3 [listing 1 of 2 here] |  |  |  |  |  | IC50 [15]: 3.49 µM; IC50 (HEL; hel): 2.58 µM; IC50 (MDA-MB-231; mda-mb-231): 3.06 µM; IC50 (PC-3 [16]; pc-3): 0.77 µM; IC50 (K562; k562): 0.93 µM |
| CNC(=O)Nc1cc(OC)c2cc1C[C@H]1c3c(cc(OC)c(OC)c3Oc3cc4c(cc3OC)CCN(C)[C@H]4Cc3ccc(cc3)O2)CCN1C | 3.09 | 9.42 | 14.5 | 1.71 | 9.21 |  |
| C=C(C)C(=O)OCCNC(=O)Nc1cc(OC)c2cc1C[C@H]1c3c(cc(OC)c(OC)c3Oc3cc4c(cc3OC)CCN(C)[C@H]4Cc3ccc(cc3)O2)CCN1C | 1.83 | 12.3 | 15.8 | 7.82 | 8.01 |  |
| CCCCNC(=S)Nc1cc(OC)c2cc1C[C@H]1c3c(cc(OC)c(OC)c3Oc3cc4c(cc3OC)CCN(C)[C@H]4Cc3ccc(cc3)O2)CCN1C |  |  |  |  |  | IC50 [15]: 2.84 µM; IC50 (HEL; hel): 1.96 µM; IC50 (MDA-MB-231; mda-mb-231): 3.24 µM; IC50 (PC-3 [16]; pc-3): 1.05 µM; IC50 (K562; k562): 2.02 µM |
| CNC(=S)Nc1cc(OC)c2cc1C[C@H]1c3c(cc(OC)c(OC)c3Oc3cc4c(cc3OC)CCN(C)[C@H]4Cc3ccc(cc3)O2)CCN1C | 7.37 | 9.19 | 13.6 | 6.43 | 7.35 |  |
| COc1cc(NC(=S)Nc2ccc(F)cc2)c2cc1Oc1ccc(cc1)C[C@H]1c3cc(c(OC)cc3CCN1C)Oc1c(OC)c(OC)cc3c1[C@H](C2)N(C)CC3 [listing 2 of 2 here] | 2.6 | 2.55 | 2.03 | 0.64 | 1.56 | Activity (PC-3 [17]): 0.7%; viability at 1 µM (PC-3 [18]): 87.7%; viability at 3 µM (PC-3 [19]): 63.3%; Activity (PC-3 [20]): 5.3%; Activity (PC-3 [21]): 0.5%; viability at 2 µM (PC-3 [22]): 83.3%; Activity (PC-3 [23]): 34.4%; Activity (PC-3 [24]): 2.8%; Ratio IC50 (PC-3 [25]): 31; Activity (PC-3 [26]): 2.1%; Activity (PC-3 [27]): 13.6%; Activity (PC-3 [28]): 0.9%; Activity (PC-3 [29]): 0.1%; Activity (PC-3 [30]): 0.3%; viability at 0.5 µM (PC-3 [31]): 93.3%; Ratio IC50 (PC-3 [32]): 26; Activity (PC-3 [33]): 11.63%; Activity (PC-3 [34]): 0.4% |
| COc1cc(NC(=O)Nc2ccc(Cl)c(C(F)(F)F)c2)c2cc1Oc1ccc(cc1)C[C@H]1c3cc(c(OC)cc3CCN1C)Oc1c(OC)c(OC)cc3c1[C@H](C2)N(C)CC3 | 3.1 | 5.41 | 10.1 | 4.7 | 2.05 |  |
| COc1cc(NC(=O)Nc2ccc(F)cc2)c2cc1Oc1ccc(cc1)C[C@H]1c3cc(c(OC)cc3CCN1C)Oc1c(OC)c(OC)cc3c1[C@H](C2)N(C)CC3 [listing 2 of 2 here] | 4.19 | 4.46 | 5.02 |  | 1.81 | IC50 (PC-3 [16]; pc-3): 2.07 µM |

Source: ChEMBL document CHEMBL4138174, “Design and synthesis of novel C14-urea-tetrandrine derivatives with potent anti-cancer activity” (Eur J Med Chem, 2018)
